According to publication PMC11714206, “Massively Parallel Screening of Toll/Interleukin‐1 Receptor (TIR)‐Derived Peptides Reveals Multiple Toll‐Like Receptors (TLRs)‐Targeting Immunomodulatory Peptides” (Advanced Science, 2024):

Target: T1, MAL^TIR (Homo sapiens, UniProt P58753)
T1 construct: MAL (residues 79–221); 6xHis; made in house; host or cells: E. coli BL21 (DE3)
Assay: T‐Surf phage library (P8 and P3) selection against MAL^TIR, four rounds, NGS read counts
Format: binding
Settings: for P3_MAL Rank (after) / P3_MAL Rank (before): P3 library; for P8_MAL Rank (after) / P8_MAL Rank (before): P8 library; for Population: 4th round of selection against MAL TIR, share of NGS reads
How it was run: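 Four panning rounds on TIR domain adsorbed at 5 µg mL^−1; binding 1 h at 20–22 °C, elution with 100 mM HCl. Output: NGS read counts of round‐4 pools versus naïve library.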

[1] = selection against MAL, rank by count after grouping
[2] = selection against MAL, rank by count before grouping
[3] = selection against MAL, rank after grouping
[4] = selection against MAL, rank before grouping
[5] = selection against MAL TIR, rank by count after grouping
[6] = selection against MAL TIR, rank by count before grouping
[7] = 4R selection against MAL, rank after grouping
[8] = 4R selection against MAL, rank before grouping
[9] = P3_MAL: rank by count after grouping
[10] = P3_MAL: rank by count before grouping
[11] = P8_MAL: rank by count after grouping
[12] = P8_MAL: rank by count before grouping
[13] = P8_MAL pool: P8 T-Surf phage library

T1 sequence (P58753 79-221): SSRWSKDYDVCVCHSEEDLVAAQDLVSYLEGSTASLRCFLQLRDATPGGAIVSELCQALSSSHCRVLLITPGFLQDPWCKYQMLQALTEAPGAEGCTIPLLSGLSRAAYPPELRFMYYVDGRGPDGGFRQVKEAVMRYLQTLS

RAFSSHLRHHLLAKDQ
P3_MAL Rank (after) [1]: 678
P3_MAL Rank (before) [2]: 2463

WFYERLVSMITRDTNV
P8_MAL Rank (after) [3]: 486
P8_MAL Rank (before) [4]: 1271

WFYEPLLSMLLRATKV
P8_MAL Rank (after) [1]: 706
P8_MAL Rank (before) [2]: 1296

CFYERLVNLILRDTKV
P8_MAL Rank (after) [5]: 205
P8_MAL Rank (before) [6]: 1107

RDFVAYLFQALANKGL
P8_MAL Rank (after) [7]: 640
P8_MAL Rank (before) [8]: 2171

NQWRNAQTAAAKLSGW
Rank (after) [9]: 152
Rank (before) [10]: 3399

LKVERWRQALEKADKL
P3_MAL Rank (after) [5]: 215
P3_MAL Rank (before) [6]: 2299

AFQYTFLFNLTHPTNF
Rank (after) [11]: 125
Rank (before) [12]: 1920

LKGESWRQAREKAGKL
P3_MAL Rank (after) [3]: 533
P3_MAL Rank (before) [4]: 2303

NDVEGCRDALTKVASL
P3_MAL Rank (after) [1]: 679
P3_MAL Rank (before) [2]: 3278

AFYGPLLSLILRDTKM
P8_MAL Rank (after) [7]: 641
P8_MAL Rank (before) [8]: 1790

RNFVAQLKRALANKAI
P8_MAL Rank (after) [3]: 499
P8_MAL Rank (before) [4]: 2310

TFHSHLYNALVQAGIH
P8_MAL Rank (after) [1]: 678
P8_MAL Rank (before) [2]: 2634

SSFREGLWRLLDLSKQ
P3_MAL Rank (after) [1]: 732
P3_MAL Rank (before) [2]: 3144

YFLHFLLCSRPETAYI
P8_MAL Rank (after) [5]: 199
P8_MAL Rank (before) [6]: 1496

RKFVAYPFQALANKGI
P8_MAL Rank (after) [1]: 703
P8_MAL Rank (before) [2]: 2255

WLYERLVGLILRYTKV
P8_MAL Rank (after) [7]: 638
P8_MAL Rank (before) [8]: 1425

KRISEQLRPALNVRRP
P3_MAL Rank (after) [7]: 665
P3_MAL Rank (before) [8]: 3633

SFFWNKLRYHLQAKDH
P3_MAL Rank (after) [3]: 572
P3_MAL Rank (before) [4]: 3010

WFYKPLVSLILRDTKA
P8_MAL Rank (after) [7]: 619
P8_MAL Rank (before) [8]: 1307

YAFTGHLHRYLVQRGVHGGD
P3_MAL Rank (after) [3]: 560
P3_MAL Rank (before) [4]: 1396

GWFLNKLSQLILKKEK
Population (P3_MAL pool: P3 T-Surf phage library): 0.03%
Rank (after) [9]: 100
Rank (before) [10]: 100

YAFTGHLHRYLCSVA
Rank (after) [9]: 144
Rank (before) [10]: 508

SSFRVGLCRLMALIQQ
P3_MAL Rank (after) [1]: 685
P3_MAL Rank (before) [2]: 3125

LQNQWKLALTKVAKLE
P3_MAL Rank (after) [5]: 236
P3_MAL Rank (before) [6]: 2160

SICREGLWRLLELSKK
P3_MAL Rank (after) [5]: 284
P3_MAL Rank (before) [6]: 3117

PNLSNKVMNYLMRTQT
P3_MAL Rank (after) [7]: 634
P3_MAL Rank (before) [8]: 2753

AFFWAHLKSVLGKPTM
P8_MAL Rank (after) [5]: 233
P8_MAL Rank (before) [6]: 1601

ERLFSEPLNVNKDLLG
Rank (after) [9]: 434
Rank (before) [10]: 2032

AFLYTFLKNLTHPTTF
Rank (after) [11]: 97
Rank (before) [12]: 1875

EYRNESKFIWDIINAI
Rank (after) [11]: 386
Rank (before) [12]: 2047

NQWRNALTAAANLRGR
Rank (after) [9]: 145
Rank (before) [10]: 3369

YFLHFLLFSRPETEYI
Rank (after) [9]: 386
Rank (before) [10]: 1336

YAFTGHLRRYMVQRGV
P3_MAL Rank (after) [3]: 517
P3_MAL Rank (before) [4]: 1370

NELVHVWSSKAHSPVG
P3_MAL Rank (after) [1]: 731
P3_MAL Rank (before) [2]: 3294

ALLNNFLIKLTHPSII
Rank (after) [11]: 448
Rank (before) [12]: 1959

AFLYAFLISLTHTTTF
P8_MAL Rank (after) [3]: 571
P8_MAL Rank (before) [4]: 1798

EKIVEWVWEKAHNRFK
P3_MAL Rank (after) [1]: 770
P3_MAL Rank (before) [2]: 2080

LFFWESLKQLLRRWP
P8_MAL Rank (after) [3]: 563
P8_MAL Rank (before) [4]: 2097

NQWRNALTAASNLSIW
Rank (after) [9]: 169
Rank (before) [10]: 3353

RNNFICHLYQELYRIG
Rank (after) [11]: 428
Rank (before) [12]: 2264

PNLRTKVLSYLMRTTT
P3_MAL Rank (after) [5]: 270
P3_MAL Rank (before) [6]: 2674

KLFWEKFKFFLPTPSR
P8_MAL Rank (after) [5]: 201
P8_MAL Rank (before) [6]: 2708

LGFLSHLALNLQAKEH
Rank (after) [9]: 399
Rank (before) [10]: 2081

WFLFTVRSAIYAMDQVADT
Rank (after) [11]: 459
Rank (before) [12]: 1324

AYLNTFLINLTHPTNF
Rank (after) [11]: 149
Rank (before) [12]: 1951

PNLRNKVLNYLLRTKT
P3_MAL Rank (after) [3]: 574
P3_MAL Rank (before) [4]: 2748

MSQRYQGLKNRGIFTF
P3_MAL Rank (after) [7]: 663
P3_MAL Rank (before) [8]: 2959

WFLFTVRSATYTMSPA
P8_MAL Rank (after) [5]: 220
P8_MAL Rank (before) [6]: 1338

NQWRNALTATANLSGL
P3_MAL Rank (after) [7]: 604
P3_MAL Rank (before) [8]: 3390

YAFTGHLPRYLVQRGG
Rank (after) [9]: 425
Rank (before) [10]: 1373

AFLYTFLINLTHPTNS
Population [13]: 0.0034%

RNNFFGHLYHALYRIG
P8_MAL Rank (after) [1]: 685
P8_MAL Rank (before) [2]: 2261

ACFWEQRPTVLGKPPM
Rank (after) [11]: 417
Rank (before) [12]: 1934

HFSRIQLKSRLGETSF
Rank (after) [11]: 444
Rank (before) [12]: 2425

RLLKWKEALHHVLQK
P3_MAL Rank (after) [1]: 690
P3_MAL Rank (before) [2]: 2502

WLYVRLVSLILRDTKV
Rank (after) [11]: 144
Rank (before) [12]: 1392

WHLHLRLRMHDLLQQM
P3_MAL Rank (after) [3]: 537
P3_MAL Rank (before) [4]: 1311

LFFWESLKQLLRRAGL
P8_MAL Rank (after) [5]: 252
P8_MAL Rank (before) [6]: 2096

LCFRESLKQLLRSNGR
P8_MAL Rank (after) [3]: 535
P8_MAL Rank (before) [4]: 2162

KWFWDTLTYAPNLSPH
P3_MAL Rank (after) [7]: 672
P3_MAL Rank (before) [8]: 3487

WFYERLVSLIMRDNIV
P8_MAL Rank (after) [7]: 634
P8_MAL Rank (before) [8]: 1183

WCYERRVSLILRETKV
Rank (after) [11]: 385
Rank (before) [12]: 1403

AFFWPKLKSGLGNPTM
P8_MAL Rank (after) [7]: 635
P8_MAL Rank (before) [8]: 1717

VFLYTFLINLTHPTNF
Population [13]: 0.00309%

LKEESWRRALERAGKL
Rank (after) [9]: 410
Rank (before) [10]: 2307

ASLYTFLINLTHPTNF
Population [13]: 0.0034%

AFFWAQLKRAGQSDD
P8_MAL Rank (after) [5]: 257
P8_MAL Rank (before) [6]: 1607

RNNYIGHLYQALYRNG
P8_MAL Rank (after) [7]: 596
P8_MAL Rank (before) [8]: 2297

PNLRTKVPDYLKRTKT
P3_MAL Rank (after) [7]: 608
P3_MAL Rank (before) [8]: 2730

HFWWIPLKSILGETSF
P8_MAL Rank (after) [7]: 632
P8_MAL Rank (before) [8]: 2423

PNLRTKVMNYLIRTKP
P3_MAL Rank (after) [7]: 643
P3_MAL Rank (before) [8]: 2733

VEPTQVRKQSGAVENATG
P3_MAL Rank (after) [1]: 676
P3_MAL Rank (before) [2]: 1673

LFFGKALNSCCVAIA
P8_MAL Rank (after) [7]: 649
P8_MAL Rank (before) [8]: 2136

SSFREGLRRMLELTKI
P3_MAL Rank (after) [3]: 515
P3_MAL Rank (before) [4]: 3176

LFFWKSLKQLLRSDSR
Rank (after) [11]: 124
Rank (before) [12]: 2128

AFLYTFLINRTHPTNF
Population [13]: 0.0034%

AFFWERLRPVLRKPTR
P8_MAL Rank (after) [7]: 637
P8_MAL Rank (before) [8]: 1668

KLIQGWFLYRLMQIEQ
P8_MAL Rank (after) [1]: 707
P8_MAL Rank (before) [2]: 2749
